“And” between values parts separate entries of the source, which are not always exact repeats. Equal entries are not always repeated. “Also recorded” adds a separate entry of the source.
Tests used:
[1] = chelating agent; cited from earlier work
THP-1 cells = experiment: Maturation of THP-1 cells assessed by up-regulation of co-stimulatory molecules CD86 and CD54; conditions: for CD54 and CD86 maturation levels, pre-incubation before allergen: pre-incubation (20 mM) before 24 h DNFB (8 μM) and MI (100 μM); for levels of CD54 and CD86, allergen alone: 24 h, DNFB 8 μM, MI 100 μM
Procedure: In an embodiment, the THP-1 cell line has been used as a dendritic cell (DC) surrogate for skin sensitizers hazard, following the OECD guidelines. […] The THP-1 cells are stabilized overnight at a density of 5×10^5 cells/mL. On the day after, cells are seeded in 12-well plates at a density of 8×10^5 cells/well and incubated for 24 h with medium (control), Dimethyl sulfoxide (DMSO) (allergens solvent) or with 20 mM of each inhibitor of ACD (NAC), (LYS) or mixture (NAC+LYS). In addition, sensitization is induced with the strong skin allergen 1-fluoro-2,4-dinitrobenzene (DNFB) (8 μM) or Methylisothiazolinone (MI) (100 μM) for 24 h. At the end of the incubation period, cells are washed with ice-cold PBS supplemented with 1% (v/v) inactivated FBS, centrifuged at 300×g for 5 min at 4° C. and pellets are dissolved in ice-cold PBS supplemented with 1% (v/v) inactivated FBS. Then, 100 µL of the cell suspension are incubated with, or without, 3 μL of anti-human CD54 antibody (#353111, Biolegend, San Diego, CA, USA) or anti-human CD86 (#305414, Biolegend, San Diego, CA, USA) antibody for 30 min at 4° C. […] A total of 1×10^4 living cells are considered for analysis. The CD86 and CD54 levels are analyzed by flow cytometry with the acquisition channels FL1 and FL4. Based on the geometric mean fluorescence intensity (MFI), the relative fluorescence intensity (RFI) of CD86 and CD54 for positive control cells and chemical-treated cells is calculated according to the following equation: […]

[2] = test system: NRF2 dependent genes in HaCaT; experiment: Expression of NRF2 dependent genes in keratinocytes (real time PCR); format: cell-based, human; conditions: 6 h
Procedure: HaCaT is cultured with Dulbecco's Modified Eagle's Medium (DMEM) (Sigma-Aldrich, St. Louis, MO, USA), supplemented with 10% (v/v) heat-inactivated fetal bovine serum (FBS), 1% (v/v) antibiotic solution (100 U/mL penicillin, 100 μg/mL streptomycin) (Gibco, Carlsbad, CA, USA), 3.7 g/L sodium bicarbonate and 1 mM sodium pyruvate (Sigma-Aldrich, St. Louis, MO, USA).
In an embodiment, HaCaT cells are seeded in 6-well plates at a density of 6×10^5 cells/well and allowed to adhere for 24 h. After that, cells are incubated for 24 h with exposure medium (control) or treated with 10 mM of NAC, 10 mM of LYS, 8 μM of DNFB, 100 μM of MI, or 10 mM+DNFB, 10 mM LYS+DNFB and 10 mM+MI, 10 mM LYS+MI for 6 h or 24 h.
In an embodiment, total RNA (ribonucleic acid) is extracted from HaCaT treated cells, as previously described by our group [37], with NZYol reagent, according to the manufacturer's instructions and its concentration is determined by OD260 measurement using a NanoDrop spectrophotometer (Thermo Scientific, Wilmington, DE, USA). Samples are stored in RNA Storage Solution at −80° C. until use. Total RNA (1 g) is reverse-transcribed using the iScript Select cDNA Synthesis Kit, and real-time reverse transcriptase-polymerase chain reaction (RT-PCR) reactions are performed, in duplicate for each sample, on a Bio-Rad MyCycler iQ5 (Hercules, CA, USA), as previously described by our group [38].
In an embodiment, after amplification, a threshold is set for each gene and Ct values are calculated for all samples. Gene expression changes are analyzed using Bio-Rad CFX Maestro 1.1 system software (Hercules, CA, USA). The results are normalized using Hprt-1 as the reference gene. Primer sequences are designed using Beacon Designer software version 7.7 (Premier Biosoft International, Palo Alto, CA, USA) and thoroughly tested.

BALB/c mice = experiment: Murine local lymph node assay (BRDU-LLNA, flow cytometry); conditions: for skin ulcerations, allergen alone (mice ears): topical on ears, days 1-3
Procedure: In vivo validation of the efficacy of the hydrogel enriched with the best mixture of molecules, to avoid the development of skin sensitization using the murine local lymph node assay (LLNA)
This event can be confirmed using the in vivo test Local lymph node assay (LLNA), which is evaluated by flow cytometry (FCM) using the OECD Guideline for the testing of chemicals: BRDU (bromodeoxyuridine) ELISA (enzyme linked immunosorbent assay) or FCM 442B, as previously described and revised on OECD TG 442B [41].
During the entire procedure, the daily weight record is made to assess the welfare of the animals. […]
In an embodiment, on day 5, animals are intraperitoneally injected with 100 μl of BrdU mixture (20 mg/mL) in PBS. […] LNCs are stained with trypan blue (Sigma) and counted using a hemocytometer. LNCs (1.5×10^6 cells/mL) are prepared using a commercially FITC BrdU Flow Kit-Catalog No. 559619 (BD Biosciences, San Jose, CA, USA) and further analyzed by flow cytometry using a BD Accuri™ C6 Flow Cytometer (BD Biosciences, San Jose, CA, USA). Stimulation index (SI) values for each sample are calculated using the formula described in the OECD test guideline (TG 442B) [41].

[3] = test system: SkinEthic™ Reconstructed Human Epidermis (RHE); experiment: Skin irritation, SkinEthic Reconstructed Human Epidermis (RHE), MTT assay, OECD TG 439; format: cell-based; conditions: 42 min exposure, 42 h post-incubation, three tissue replicates, relative to PBS control, <50% = irritant, sulfate
Procedure: In an embodiment, skin irritation is evaluated using the SkinEthic™ Reconstructed Human Epidermis (RHE) model (EPISKIN Laboratories, Lyon, France), in compliance with the OECD Test Guideline No. 439-In Vitro Skin Irritation: Reconstructed
Human Epidermis Test Method. The RHE model consists of a differentiated three-dimensional epi-dermal tissue of human keratinocytes grown on a 0.5 cm^2 surface inert polycarbonate filter in a chemically defined medium at the air-liquid interface. Two specific media provided by EPISKIN are used: maintenance and growth media. […] The experiment also includes other inserts treated with PBS or 5% (w/v in water) SDS used as negative and positive controls, respectively. […] Tissue viability is assessed using the MTT (3-(4,5-dimethylthiazol-2-yl)-2,5-diphenyl-2H-tetrazolium bromide) assay. For that, tissues are incubated with MTT (1 mg/mL) at 37° C. for 3h; then the MTT solution was removed, and formazan crystals were dissolved with isopropanol. The absorbance was measured at 570 nm using a SpectraMax Plus 384 Spectrophotometer. […] If the tissue viability value is <50%, the samples are classified as irritants.

[4] = test system: Poly-L-Lysine Hydrobromide (PLL); experiment: Lysine depletion protocol (in chemico reactivity towards lysine); conditions: 20 mM molecule incubated 1 h with DNFB 5 mM; FIG. 1B
Procedure: In an embodiment, a Lysine depletion Protocol—“in house development protocol” was applied, comprising: Dissolve 0.01 g of Poly-L-Lysine Hydrobromide (PLL) (Sigma, P1399) in 100 mL of purified water (use within 2 months). Filter the solution with a syringe filter to remove aggregates and store ate 4° C. for further use. For plate coating add 50 μL of PLL to each well of the 96 black bottom glass microplate (Corning ref 45806) and incubate for 2 hours at 37° C. or 24 h at room temperature.
In an embodiment, after the coating procedure, the contents of the plate were discarded into a sink and the plate is washed 3 times with 200 μL of PBS per well. Blot any residual PBS by firmly tapping the plate upside-down on absorbent paper. 20 mM of each potential ACD inhibitory molecule/mixture is added and incubated with 70 μl of the strong skin sensitizer 1-fluoro-2,4-dinitrobenzene (DNFB) (5 mM in DMSO) for 1h; the mixture was transferred to the plate and incubated for 24 h at 37° C. The contents of the plate were discarded and the wells were washed 3 times with PBS as previously reported. 70 μL of 10 μM Fluorescein-5-Ex-Succinimidyl Ester (FSE) were added and incubated for 1 h in the dark at 37° C. The contents of the plate were discarded; the wells were washed 3 times with PBS as previously stated. The fluorescence was read in a microplate reader (Exc 485±20 nm and Em 530±30 nm). Synergy™ HT plate reader (BioTek Instruments, Inc., Winooski, VT, USA): Bottom read with a sensibility of 50. […]
In an embodiment, Reference control A is made with the solvent DMSO, with incubation with FSE and is used to calculate the maximum fluorescence or absorbance in the presence of LYS. […]
In an embodiment, Test chemicals were pre-weighted into 1.5 mL test tubes and dissolved in 1 mL of DMSO to prepare a 100 mM solution immediately before use. The weight of the test chemical to be added to the vial was determined based on the molecular weight and purity. […]
In an embodiment, for the data Analysis the percentage of peptide depletion is determined by using the following formula: […]

[5] = Cysteine depletion protocol (glutathione in solution depletion); conditions: FIG. 1A
Procedure: In an embodiment, Cysteine depletion Protocol-Glutathione in solution depletion protocol—“in house development protocol” was applied: • In a test tube, mix 10 μL of the 100 mM test chemical solution with 190 μL of GSH solution (20 μL of GSH 2 mM and 170 μL of PB) and Incubated at RT, protected from light, for 1 h in a tube roller (40 rpm) • […]; [test chemical]f=5 mM; [GSH]f=0.2 mM; • 20 μL of Ellman's reagent 10 mM, a thiol sensitive colorimetric reagent was added. Mix gently by tapping manually in the test tube and incubate for 10 min at RT, in a test tube rotator protected from light; • The absorbance was read in a microplate reader at 405 nm. • Note: For each assay, a fresh Glutathione stock of 50 mM (0.00768 g in 500 μL of PBS) and the second stock of 2 mM in PBS (2 μL of the […] solution+48 μl of PBS) were freshly prepared.
In an embodiment, Control and Test Chemical Preparation was applied: • DNFB is used as the positive control for the assay in every assay run. For the negative control LA is used and for the reference control three types of reference controls are included in each study: • Reference control A is made with the solvent DMSO, with incubation with Ellman's reagent and is used to calculate the maximum fluorescence or absorbance in the presence of CYS containing peptides. […]
Test Chemicals: In an embodiment, test chemicals were pre-weighted into 1.5 mL test tubes and dissolved in 1 mL of DMSO to prepare a 100 mM solution immediately before use. The weight of the test chemical to be added to the vial is determined based on the molecular weight and purity. […]
In an embodiment, for the data analysis, the percent depletion of peptide is determined by using the following formula: […]

[6] = incubated before DNFB, vs DNFB alone
[7] = incubated before MI, vs MI alone

## O=C(O)CN(CCN(CC(=O)O)CC(=O)O)CCN(CC(=O)O)CC(=O)O [diethylenetriaminepentaacetic]
[1]
  prevention of nickel, chromium, and copper dermatitis: can prevent

## N[C@@H](CCC(=O)N[C@@H](CS)C(=O)NCC(=O)O)C(=O)O [GSH, Glutathione]
THP-1 cells
  CD54 and CD86 maturation levels, pre-incubation before allergen: significantly decrease
[2]; [6]
  HMOX1 expression: significantly decrease
  SOD1 expression: significantly decrease
[2]; [7]
  HMOX1 expression: significantly decrease

## O=C(O)C(S)C(S)C(=O)O (stereo not shown) [DMSA, 2,3 dimercaptosuccinic acid]
THP-1 cells
  CD54 and CD86 maturation levels, pre-incubation before allergen: significantly decrease

## CSCC[C@H](N)C(=O)O [MET, methionine]
THP-1 cells
  CD54 and CD86 maturation levels, pre-incubation before allergen: significantly decrease
[2]; [7]
  GST expression: significantly decrease
  NQO1 expression: significantly decrease

## Cn1sccc1=O [MI, Methylisothiazolinone, reference compound]
THP-1 cells
  levels of CD54 and CD86, allergen alone: significantly increases; also recorded: increase
BALB/c mice
  skin ulcerations, allergen alone (mice ears): induce skin ulcerations

## CCCCCCCCCCCCOS(=O)(=O)[O-].[Na+] [SDS, sodium dodecyl sulfate]
[3]; listed as SDS (5%)
  Tissue viability (%): 1.41% and 1.44% and 1.62%
[3]
  Tissue viability (%): significantly decrease

## N[C@@H](CS)C(=O)O [CYS, cysteine]
[4]
  reactivity of the strong allergen DNFB towards lysine (Lysine depletion): significantly inhibit
[5]
  reactivity of the strong allergen DNFB towards cysteine (Glutathione depletion): significantly inhibit
THP-1 cells
  CD54 and CD86 maturation levels, pre-incubation before allergen: significantly decrease
[2]; [6]
  HMOX1 expression: significantly decrease
  TRX1 expression: significantly decrease

## O=[N+]([O-])c1ccc(F)c([N+](=O)[O-])c1 [DNFB, 1-fluoro-2,4-dinitrobenzene, reference compound]
THP-1 cells
  levels of CD54 and CD86, allergen alone: significantly increases; also recorded: increase
BALB/c mice; DNFB treated ears, FIG. 13B (gel 100 mM)
  presence of eosinophils in the ears (histology): presence of eosinophils
BALB/c mice
  skin ulcerations, allergen alone (mice ears): induce skin ulcerations

## N[C@@H](CCS)C(=O)O [HOMO, homocysteine]
THP-1 cells
  CD54 and CD86 maturation levels, pre-incubation before allergen: significantly decrease
[2]; [6]
  HMOX1 expression: significantly decrease
  SOD1 expression: significantly decrease
[2]; [7]
  TRX1 expression: significantly decrease
